The values that follow come from article PMC12203311, “Design, synthesis, in silico and in vitro evaluation of pyrrole–indole hybrids as dual tubulin and aromatase inhibitors with potent anticancer activities” (RSC Advances, 2025).

One assay concerns SF-268. Nature of the assay: NCI60 five-dose screen. The conditions noted are these: Homo sapiens, SF-268, CNS cancer; for CC50: read-out: LC50 (the source's name). The class given is cell-based.
A further assay concerns A549/ATCC. Nature of the assay: NCI60 five-dose screen. The class given is cell-based. To be noted: Homo sapiens, NSC lung cancer; for CC50: read-out: LC50 (the source's name).
In a further assay the test system is OVCAR-4. Nature of the assay: NCI60 five-dose screen. The class given is cell-based. The conditions noted are these: Homo sapiens, OVCAR-4, ovarian cancer; for CC50: read-out: LC50 (the source's name).
The test system of the next assay is SN12C. Nature of the assay: NCI60 five-dose screen. The class given is cell-based. The conditions noted are these: Homo sapiens, renal cancer; for CC50: read-out: LC50 (the source's name).
In the next assay the test system is PC-3. Nature of the assay: NCI60 five-dose screen. To be noted: Homo sapiens, PC-3, prostate cancer; for CC50: read-out: LC50 (the source's name). The class given is cell-based.
The subject of the next assay is SF-295. Nature of the assay: NCI60 five-dose screen. The class given is cell-based. The conditions noted are these: Homo sapiens, SF-295, CNS cancer; for CC50: read-out: LC50 (the source's name).
A further assay concerns ACHN. Nature of the assay: NCI60 five-dose screen. The conditions noted are these: Homo sapiens, renal cancer; for CC50: read-out: LC50 (the source's name). It counts as cell-based.
The next assay relates to DU-145. Nature of the assay: NCI60 five-dose screen. The class given is cell-based. The conditions noted are these: Homo sapiens, DU-145, prostate cancer; for CC50: read-out: LC50 (the source's name).
Another assay deals with COLO 205. Nature of the assay: NCI60 five-dose screen. It counts as cell-based, human. The conditions noted are these: Homo sapiens; for CC50: COLO 205, COLO 205, colon cancer, read-out: LC50 (the source's name); for GI50: COLO 205, colon cancer.
The test system of the next assay is MDA-MB-468. Nature of the assay: NCI60 five-dose screen. The class given is cell-based. The conditions noted are these: Homo sapiens, MDA-MB-468, breast cancer; for CC50: read-out: LC50 (the source's name).
The subject of assay [1] is NCI60 human cancer cell line panel. Nature of the assay: NCI60 five-dose screen, ranges over the panel. The class given is cell-based. The conditions noted are these: for GI50: five-dose experiment, all cell lines, read-out: GI50 values (range over the panel).
In a further assay the test system is SR. Nature of the assay: NCI60 five-dose screen. To be noted: Homo sapiens, leukemia; for CC50: read-out: LC50 (the source's name). The class given is cell-based.
In a further assay the target is T1, porcine brain tubulin (Sus scrofa, UniProt P02550+P02554).
T1 construct: a solution containing porcine brain tubulin (2 mg mL^−1); purchased Cytoskeleton BK011P; host or cells: porcine brain (tissue-purified)
T1 sequence (P02554 whole entry): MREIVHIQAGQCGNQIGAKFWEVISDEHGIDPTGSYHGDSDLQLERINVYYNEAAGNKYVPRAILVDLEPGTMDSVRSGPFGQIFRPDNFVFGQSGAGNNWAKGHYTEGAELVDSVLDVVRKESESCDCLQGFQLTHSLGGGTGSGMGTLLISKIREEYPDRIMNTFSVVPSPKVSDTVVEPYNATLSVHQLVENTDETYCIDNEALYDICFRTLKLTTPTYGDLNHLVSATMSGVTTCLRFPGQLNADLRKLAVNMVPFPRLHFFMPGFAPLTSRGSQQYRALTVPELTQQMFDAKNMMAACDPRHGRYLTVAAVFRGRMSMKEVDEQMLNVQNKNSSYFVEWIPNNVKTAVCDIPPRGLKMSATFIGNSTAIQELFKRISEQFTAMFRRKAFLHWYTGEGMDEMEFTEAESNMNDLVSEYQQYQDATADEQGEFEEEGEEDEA
T1 sequence (P02550 whole entry): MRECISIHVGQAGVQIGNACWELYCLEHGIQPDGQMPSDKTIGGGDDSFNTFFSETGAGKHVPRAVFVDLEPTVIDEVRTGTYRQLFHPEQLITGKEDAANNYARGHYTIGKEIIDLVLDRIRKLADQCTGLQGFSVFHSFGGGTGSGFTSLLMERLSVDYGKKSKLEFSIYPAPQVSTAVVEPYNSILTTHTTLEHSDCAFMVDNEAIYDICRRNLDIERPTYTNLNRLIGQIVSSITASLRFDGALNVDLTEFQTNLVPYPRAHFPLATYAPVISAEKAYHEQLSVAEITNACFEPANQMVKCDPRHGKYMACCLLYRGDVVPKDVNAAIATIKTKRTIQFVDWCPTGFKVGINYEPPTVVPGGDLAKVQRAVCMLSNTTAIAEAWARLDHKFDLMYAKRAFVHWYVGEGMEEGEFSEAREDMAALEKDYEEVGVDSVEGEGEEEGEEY
Nature of the assay: Tubulin polymerisation assay (fluorescence-based). To be noted: 10 µM, 37 °C. It counts as biochemical. How it is done: The tubulin polymerisation experimental protocol followed the method described in this literature.[28] The experimental was using fluorescence-based assay kit (Cytoskeleton, catalog no. BK011P). In Brief, 5 µL of test compounds was added to a 96-well plate, then mix with 50 µL of a solution containing porcine brain tubulin (2 mg mL^−1) in buffer with 20% glycerol and 1 mM GTP. A microplate reader (Varioskan™ LUX multimode microplate reader, Thermo Scientific™) was used to measure fluorescence intensity every 60 seconds for 60 minutes, with excitation at 360 nm and emission at 450 nm, maintained at 37 °C throughout the experiment.

SMILES strings stand for the structures.

For the molecule `Cc1cc(C)c(/C=N/NC(=O)c2[nH]c3ccc(Br)cc3c2-c2ccccc2)[nH]1` [Derivative 3c, (E)-5-Bromo-N′-((3,5-dimethyl-1H-pyrrol-2-yl)methylene)-3-phenyl-1H-2-carbohydrazide], the GI50 in the assay on SF-268 came out at 2.98 µM; in the assay with A549/ATCC, 3.82 µM; in the assay with OVCAR-4, 3.55 µM; in the assay with SN12C it was 2.58 µM; in the assay with PC-3, 2.06 µM; in the assay with SF-295, 2.76 µM. Moreover, the GI50 with ACHN was 3.03 µM; in the assay on DU-145 it was 4.07 µM; with COLO 205, 3.25 µM; in the assay on MDA-MB-468, 2 µM; in [1], 1.77 to 8.25 µM. The CC50 in the assay with SF-268 amounted to 53.2 µM; with A549/ATCC, 45.4 µM; in the assay with OVCAR-4 it was 40.7 µM; in the assay with SN12C it was 32.3 µM; in the assay with PC-3, 47.6 µM; in the assay with SF-295, 29.5 µM. Moreover, the CC50 came out at 34.2 µM with ACHN, 38.9 µM in the assay with DU-145, 52.3 µM with COLO 205 and 26.4 µM with MDA-MB-468.

With `O=C(N/N=C/c1cc(Br)c(Br)[nH]1)c1[nH]c2ccc(Br)cc2c1-c1ccccc1` [Derivative 3f, (E)-5-Bromo-N′-((4,5-dibromo-1H-pyrrol-2-yl)methylene)-3-phenyl-1H-indole-2-carbohydrazide], the GI50 turned out to be 2.57 µM in the assay on SF-268; 3.11 µM with A549/ATCC; 5.2 µM in the assay on OVCAR-4; 2.15 µM in the assay with SN12C; 2.29 µM with PC-3; 2.2 µM in the assay with SF-295. Besides, the GI50 with ACHN is 2.59 µM; in the assay on DU-145, 3.18 µM; with COLO 205, 3.36 µM; with MDA-MB-468, 2.09 µM; in [1], 0.53 to 6.8 µM. In addition, the CC50 in the assay with SF-268 was 65.3 µM; in the assay with A549/ATCC, 37.6 µM; in the assay with OVCAR-4 it was 45.8 µM; with SN12C it was 30.7 µM; with PC-3, 63.3 µM; in the assay on SF-295, 26.9 µM. In addition, the CC50 worked out at 35.5 µM in the assay with ACHN, 33.9 µM in the assay with DU-145, 48.8 µM in the assay with COLO 205 and 22.8 µM in the assay on MDA-MB-468.

For `O=C(N/N=C/c1cc(Cl)c[nH]1)c1[nH]c2ccc(Br)cc2c1-c1ccccc1` [Derivative 3h, (E)-5-Bromo-N′-((4-chloro-1H-pyrrol-2-yl)methylene)-3-phenyl-1H-indole-2-carbohydrazide], the GI50 in the assay with SF-268 amounted to 0.388 µM; in the assay with SR, 0.179 µM; with A549/ATCC, 0.43 µM; in the assay with OVCAR-4 it was 0.555 µM; in the assay with SN12C it was 0.391 µM; in the assay with PC-3 it was 0.426 µM. Further, the GI50 in the assay with SF-295 came to 0.237 µM; in the assay on ACHN, 0.493 µM; in the assay with DU-145, 0.352 µM; with COLO 205, 0.251 µM; in the assay on MDA-MB-468, 0.251 µM. In addition, the CC50 with SF-268 was 77.3 µM; in the assay with SR it was 4.6 µM; in the assay on A549/ATCC, 47.4 µM; with OVCAR-4 it was 34.1 µM; with SN12C, 15.3 µM; in the assay with PC-3 it was 47.6 µM. For the same molecule, the CC50 was 58.5 µM in the assay with SF-295; 32.1 µM in the assay with ACHN; 27.2 µM in the assay with DU-145; 1.88 µM in the assay on COLO 205; 27.8 µM with MDA-MB-468; 0.8 to 7.2 µM in assay [1] (HL-60 (TB), K-562, SR, NCI-H460, COLO 205, HCC-2998, HT29, SK-MEL-5, OVCAR-8, read-out: LC50 values (range over named cell lines)). Besides, the “RFU in tubulin polymerization assay” value at porcine brain tubulin was around 40 arbitrary units.

Regarding `CCc1cc[nH]c1/C=N/NC(=O)c1[nH]c2ccc(Br)cc2c1-c1ccccc1` [Derivative 3u, (E)-5-Bromo-N′-((3-ethyl-1H-pyrrol-2-yl)methylene)-3-phenyl-1H-indole-2-carbohydrazide], the GI50 is 2.86 µM with SF-268; 2.02 µM in the assay with SR; 2 µM with A549/ATCC; 3.33 µM in the assay with OVCAR-4; 2.26 µM in the assay on SN12C; 3.09 µM in the assay with PC-3. Also, the GI50 in the assay on SF-295 came out at 2.29 µM; in the assay with ACHN it was 3.27 µM; in the assay with DU-145, 4.3 µM; in the assay with COLO 205, 2.96 µM; with MDA-MB-468 it was 2.72 µM. Further, the CC50 in the assay with SF-268 was 42.7 µM; with SR it was above 100 µM; in the assay on A549/ATCC, 41.5 µM; in the assay with OVCAR-4 it was 43.7 µM; with SN12C it was 34 µM; in the assay on PC-3, 47.6 µM. The CC50 with SF-295 was determined as 37.1 µM; with ACHN it was 36.7 µM; in the assay on DU-145, 42.3 µM; in the assay on COLO 205, 41.3 µM; with MDA-MB-468 it was 32.1 µM. Besides, at porcine brain tubulin, the “tubulin inhibition” value is on record as “weak tubulin inhibitors”.
